One test has as its system MDR A. baumannii 1019. As to the kind of experiment: MIC/MBC antimicrobial assay. The test is classed as cell-based. The note with it: Acinetobacter baumannii; MDR strain 1019; normal media; triplicate, two independent experiments. On the procedure:
(§1) Bacterial cells Acinetobacter baumannii 10591 and 14B0091 were obtained from BCRC Taiwan. All the MDR strains were obtained from the hospital as gifts. The antimicrobial assay was performed as per the standard protocol; 50 µL of 10^6 CFU/mL of mid-log phase bacterial suspension was treated with 50 µL of candidate peptide and meropenem (Sigma: PHR1772) incubated at 37 °C for 960~1200 min. The clear wells corresponding to the lowest concentrations are reported as the minimum inhibitory concentration (MIC). Suspensions from the clear wells were plated on Mueller–Hinton agar (MHA) plates and incubated at 37 °C overnight. The lowest concentration corresponding to no growth was recorded as the minimum bactericidal concentration (MBC). To detect the effect of human serum (H3667, Sigma Aldrich, St. Louis, MO, USA) on the peptides, the media was replaced with 50% human serum-containing media. Similarly, to detect the effect of lung surfactant (SURVANTA®, beractant, AbbVie Inc., Lake Bluff, IL, USA (25 mg/mL)) on the antimicrobial activity of the peptide, the normal media was replaced with 5% lung surfactant-containing media. To analyse the bacterial killing kinetics, after the addition of the peptide to the bacterial suspension, 10 µL of broth was diluted 1000 times, plated at 30 min intervals, and allowed to incubate for 90 min. The bacterial load is expressed as CFU/mL as a function of time.

The subject of the next test is MDR A. baumannii 1033. Briefly: MIC/MBC antimicrobial assay. The class given is cell-based. The conditions noted are these: Acinetobacter baumannii; MDR strain 1033; normal media; triplicate, two independent experiments. On the procedure: as §1
In another test the test system is MDR A. baumannii 1607. Briefly: MIC/MBC antimicrobial assay. The test is classed as cell-based. The conditions noted are these: Acinetobacter baumannii; MDR strain 1607; normal media; triplicate, two independent experiments. On the procedure:
as §1

Another test deals with MDR A. baumannii 1702. As to the kind of experiment: MIC/MBC antimicrobial assay. The class given is cell-based. The note with it: Acinetobacter baumannii; MDR strain 1702; normal media; triplicate, two independent experiments. Here is the method:
as §1

The test system of the next test is MDR A. baumannii 2088. As to the kind of experiment: MIC/MBC antimicrobial assay. The conditions noted are these: Acinetobacter baumannii; MDR strain 2088; normal media; triplicate, two independent experiments. The class given is cell-based. On the procedure: as §1
The subject of a further test is MDR A. baumannii 2962. Briefly: MIC/MBC antimicrobial assay. The test is classed as cell-based. The conditions noted are these: Acinetobacter baumannii; MDR strain 2962; normal media; triplicate, two independent experiments. Here is the method: as §1
The next test concerns MDR A. baumannii 2982. As to the kind of experiment: MIC/MBC antimicrobial assay. The test is classed as cell-based. The note with it: Acinetobacter baumannii; MDR strain 2982; normal media; triplicate, two independent experiments. On the procedure:
as §1

The test system of another test is MDR A. baumannii 2997. Briefly: MIC/MBC antimicrobial assay. The conditions noted are these: Acinetobacter baumannii; MDR strain 2997; normal media; triplicate, two independent experiments. The test is classed as cell-based. Here is the method: as §1
The next test relates to MDR A. baumannii 2998. As to the kind of experiment: MIC/MBC antimicrobial assay. The test is classed as cell-based. The conditions noted are these: Acinetobacter baumannii; MDR strain 2998; normal media; triplicate, two independent experiments. On the procedure:
as §1

Another test has as its system MDR A. baumannii 3618. As to the kind of experiment: MIC/MBC antimicrobial assay. The test is classed as cell-based. The conditions noted are these: Acinetobacter baumannii; MDR strain 3618; normal media; triplicate, two independent experiments. On the procedure: as §1
A further test concerns MDR A. baumannii 921. As to the kind of experiment: MIC/MBC antimicrobial assay. The class given is cell-based. The conditions noted are these: Acinetobacter baumannii; MDR strain 921; normal media; triplicate, two independent experiments. On the procedure:
as §1

The test system of a further test is A. baumannii (10591). Briefly: Induced resistance (serial passage) assay. The test is classed as cell-based, Acinetobacter baumannii. The note with it: 15 cycles, from subinhibitory wells. Here is the method:
A total of 50 µL of 10^6 CFU/mL bacterial cells were treated with different concentrations of peptide. Bacterial cells from subinhibitory wells were subcultured by passaging for 15 cycles, followed by testing their MIC values. The fold change in MIC was reported in comparison with starting MIC values.

The subject of a further test is A. baumannii 10591. Briefly: Biofilm rupture assay. The test is classed as cell-based, Acinetobacter baumannii. The conditions noted are these: at the lowest concentration (25 µg/mL). Here is the method: For the biofilm inhibition assay, 106 bacterial cells were treated with peptide at various concentrations in MHB media containing 0.2% glucose for 24 h at 37 °C in 96-well plates. The wells were then washed with PBS, treated with 100% methanol for 15 min, and the washes were discarded. Crystal violet solution (0.02%) was added to the dry plates and incubated for 30 min. The wells were then washed and treated with 33% acetic acid, followed by detection at 595 nm. For the biofilm rupture assay, 106 bacterial cells were grown overnight. The residual liquid was discarded, followed by washing with PBS. Next, 100 µL of peptide at different concentrations was added as estimated according to the biofilm inhibition assay.

We go through one molecule from PMC8875074, “Development of Bactericidal Peptides against Multidrug-Resistant Acinetobacter baumannii with Enhanced Stability and Low Toxicity” (International Journal of Molecular Sciences, 2022).

In brackets after ≈: the same amount, converted by molar mass.

As usually defined, the MBC is the smallest concentration meeting the test's criterion for killing. A high value points to less potent killing. For orientation: MIC means the lowest concentration found to suppress growth. Read a low MIC as a more susceptible organism.

Regarding `C[C@@H](O)[C@H]1C(=O)N2C(C(=O)O)=C(S[C@@H]3CN[C@H](C(=O)N(C)C)C3)[C@H](C)[C@H]12` [Meropenem, meropenem], the MBC with MDR A. baumannii 1019 is 25 µg/mL (≈ 65.2 µM); in the test on MDR A. baumannii 1033, 100 µg/mL (≈ 261 µM); against MDR A. baumannii 1607 it was 50 µg/mL (≈ 130 µM); against MDR A. baumannii 1702 it was 12.5 µg/mL (≈ 32.6 µM); in the test with MDR A. baumannii 2088, more than 100 µg/mL; in the test on MDR A. baumannii 2962 it was 50 µg/mL (≈ 130 µM). In addition, the MBC is more than 100 µg/mL against MDR A. baumannii 2982; 50 to 100 µg/mL (≈ 130 to 261 µM) with MDR A. baumannii 2997; more than 100 µg/mL against MDR A. baumannii 2998; 50 to 100 µg/mL (≈ 130 to 261 µM) in the test with MDR A. baumannii 3618; more than 100 µg/mL against MDR A. baumannii 921. Besides, the MIC in the test on MDR A. baumannii 1019 is 25 µg/mL (≈ 65.2 µM); against MDR A. baumannii 1033, 50 µg/mL (≈ 130 µM); against MDR A. baumannii 1607 it was 50 µg/mL (≈ 130 µM); in the test on MDR A. baumannii 2088 it was more than 100 µg/mL; in the test with MDR A. baumannii 2962 it was 50 µg/mL (≈ 130 µM); in the test with MDR A. baumannii 2982 it was more than 100 µg/mL. The minimal inhibitory concentration (MIC) with MDR A. baumannii 2997 is 50 to 100 µg/mL (≈ 130 to 261 µM); in the test on MDR A. baumannii 2998 it was more than 100 µg/mL; in the test on MDR A. baumannii 3618 it was 50 to 100 µg/mL (≈ 130 to 261 µM); against MDR A. baumannii 921, 100 µg/mL (≈ 261 µM). In addition, the “increase in MIC versus the initial MIC value (fold)” value with A. baumannii (10591) is given as “up to 16 fold”. Further, in the test with A. baumannii 10591, the biofilm rupture entry is listed as “nonsignificant biofilm rupture”.
